These results are taken from US5863936A, “Telomerase inhibitors” (Geron Corporation, priority 1995, dated 1999).

SMILES strings stand for the structures. Where “and” joins values, the source holds several entries; their conditions need not be identical. Identical values can stand only once. Like-named read-outs stand apart in the source and are kept apart here.

For this assay, the target named is T1, telomerase (Homo sapiens, UniProt O14746).
T1 construct: cells, tissues, or preferably a cellular extract or other preparation containing telomerase; endogenous in cells
In words: Telomerase inhibition (IC50) with cellular extract or other preparation containing telomerase. In kind it is biochemical. From the text:
One method used to identify compounds of the invention that inhibit telomerase activity involves placing cells, tissues, or preferably a cellular extract or other preparation containing telomerase in contact with several known concentrations of a test compound in a buffer compatible with telomerase activity. […] Other methods for determining the inhibitory concentration of a compound of the invention against telomerase can be employed as will be apparent to those of skill in the art based on the disclosure herein.
With the above-described methods, IC50 values for several of the compounds of the present invention were determined. The values reported in Table 1 below are only approximate values; more exact IC50 values can be obtained by repetitive testing.

The mark [1] stands for this setting: approximate values, read-out: IC50.

T1 sequence (O14746 whole entry): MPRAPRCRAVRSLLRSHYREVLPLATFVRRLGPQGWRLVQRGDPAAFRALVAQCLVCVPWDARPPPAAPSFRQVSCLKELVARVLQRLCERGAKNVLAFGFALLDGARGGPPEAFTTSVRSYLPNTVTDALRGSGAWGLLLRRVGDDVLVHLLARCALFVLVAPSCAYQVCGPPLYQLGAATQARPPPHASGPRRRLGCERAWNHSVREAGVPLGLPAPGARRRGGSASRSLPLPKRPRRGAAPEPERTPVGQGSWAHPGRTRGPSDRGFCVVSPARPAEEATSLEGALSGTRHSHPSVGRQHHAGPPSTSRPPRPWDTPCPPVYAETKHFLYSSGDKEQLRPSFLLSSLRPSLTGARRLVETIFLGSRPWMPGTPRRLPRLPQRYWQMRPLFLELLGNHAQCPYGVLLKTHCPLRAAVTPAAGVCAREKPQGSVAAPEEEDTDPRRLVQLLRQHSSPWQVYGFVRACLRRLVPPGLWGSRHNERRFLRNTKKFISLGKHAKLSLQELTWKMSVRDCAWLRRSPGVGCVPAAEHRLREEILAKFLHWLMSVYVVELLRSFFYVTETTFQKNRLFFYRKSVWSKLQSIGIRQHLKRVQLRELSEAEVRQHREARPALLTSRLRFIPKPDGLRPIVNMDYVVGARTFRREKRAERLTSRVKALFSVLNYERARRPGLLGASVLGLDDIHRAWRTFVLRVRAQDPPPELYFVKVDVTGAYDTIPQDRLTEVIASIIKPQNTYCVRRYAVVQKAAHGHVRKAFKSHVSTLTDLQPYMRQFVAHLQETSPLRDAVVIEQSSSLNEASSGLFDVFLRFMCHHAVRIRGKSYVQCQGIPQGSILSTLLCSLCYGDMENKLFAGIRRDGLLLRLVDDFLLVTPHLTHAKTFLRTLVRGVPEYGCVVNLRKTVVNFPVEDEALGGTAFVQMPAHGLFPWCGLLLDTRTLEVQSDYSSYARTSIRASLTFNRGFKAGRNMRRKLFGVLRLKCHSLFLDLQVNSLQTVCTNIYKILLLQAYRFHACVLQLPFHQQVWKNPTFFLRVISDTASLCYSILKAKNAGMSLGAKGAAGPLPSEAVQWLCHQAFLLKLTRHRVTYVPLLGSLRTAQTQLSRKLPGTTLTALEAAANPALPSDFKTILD
T1 sequence (O60832 whole entry partner): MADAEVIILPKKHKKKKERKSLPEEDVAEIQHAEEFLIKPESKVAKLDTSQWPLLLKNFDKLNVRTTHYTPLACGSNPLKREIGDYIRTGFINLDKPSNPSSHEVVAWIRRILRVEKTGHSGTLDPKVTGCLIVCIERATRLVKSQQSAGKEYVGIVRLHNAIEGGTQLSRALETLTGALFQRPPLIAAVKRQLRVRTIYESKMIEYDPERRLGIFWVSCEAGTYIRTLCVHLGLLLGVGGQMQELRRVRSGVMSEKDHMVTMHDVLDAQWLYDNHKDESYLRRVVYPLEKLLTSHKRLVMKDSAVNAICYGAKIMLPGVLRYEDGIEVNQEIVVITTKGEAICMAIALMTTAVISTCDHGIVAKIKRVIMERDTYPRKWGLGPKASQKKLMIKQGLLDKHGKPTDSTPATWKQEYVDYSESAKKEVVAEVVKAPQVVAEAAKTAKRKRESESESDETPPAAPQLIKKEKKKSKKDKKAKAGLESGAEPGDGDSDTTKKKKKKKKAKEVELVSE
T1 sequence (Q9NPE3 whole entry partner): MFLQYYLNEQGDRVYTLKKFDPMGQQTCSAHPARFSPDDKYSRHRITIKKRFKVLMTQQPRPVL
T1 sequence (Q9NX24 whole entry partner): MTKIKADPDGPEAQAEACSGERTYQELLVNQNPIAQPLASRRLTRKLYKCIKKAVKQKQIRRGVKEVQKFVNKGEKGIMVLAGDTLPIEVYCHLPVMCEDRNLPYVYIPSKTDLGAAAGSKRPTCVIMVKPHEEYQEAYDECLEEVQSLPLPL
T1 sequence (Q9NY12 whole entry partner): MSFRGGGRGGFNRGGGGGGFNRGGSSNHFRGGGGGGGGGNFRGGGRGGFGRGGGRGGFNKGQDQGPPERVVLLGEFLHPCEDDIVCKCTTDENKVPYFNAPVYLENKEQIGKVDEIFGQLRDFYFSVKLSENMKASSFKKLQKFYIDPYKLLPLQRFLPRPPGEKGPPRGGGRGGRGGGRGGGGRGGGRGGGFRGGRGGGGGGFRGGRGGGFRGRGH

As a reminder, the IC50 is the point on the concentration scale where inhibition reaches its midpoint. As for `Cc1ccc(Sc2ccccc2NC(=S)NNC(=O)c2cc3cccc(F)c3s2)cc1` [Compound X], the IC50 under setting [1] stood at 6 µM. For `O=C(NNC(=S)Nc1cccc(Cl)c1Cl)c1sc2cc(-c3ccccc3)ccc2c1Cl` [Compound XXVI], the half-inhibitory concentration (IC50) under setting [1] was determined as 6 µM. As to `COc1ccc2c(Cl)c(C(=O)NNC(=S)Nc3cc(Cl)c(Cl)c(Cl)c3Cl)sc2c1` [Compound XXI], the “anti-telomerase activity (in words)” value is given as “useful telomerase-inhibiting properties”. Moreover, the concentration for half-maximal inhibition (IC50) under setting [1] stood at 5 µM. `O=C(NNC(=S)Nc1ccc(Sc2ccc([N+](=O)[O-])cc2)cc1)c1cc2c(F)cccc2s1` [Compound XVI]: under setting [1], the IC50 is 6 µM.

Consider `Cc1ccc(Sc2ccccc2NC(=S)NNC(=O)c2sc3ccc(Cl)c(Cl)c3c2Cl)cc1` [Compound XXXVII], for which the IC50 under setting [1] came to 7 µM. Same read-out and setting: with `COc1ccc2c(Cl)c(C(=O)NNC(=S)Nc3cc(Cl)c(Cl)cc3Cl)sc2c1Cl` [Compound XVII] the figure was 9 µM. On the same count and under the same terms, with `O=C(NNC(=S)Nc1ccc2ccccc2c1)c1sc2ccc(Cl)c(Cl)c2c1Cl` [Compound XXXVIII] the figure was 5 µM and ≤ 5 µM. The same measure, in the same setting: with `O=C(NNC(=S)Nc1cc(Cl)c(Cl)cc1Cl)c1sc2cc(-c3ccccc3)ccc2c1Cl` [Compound XXIV] the figure was 8 µM. On to `Cc1ccc(Sc2ccccc2NC(=S)NNC(=O)c2cc3cc(NC(=S)Nc4ccccc4Sc4ccc(C)cc4)ccc3s2)cc1` [Compound III], for which the “anti-telomerase activity (in words)” value is on record as “useful telomerase-inhibiting properties”. Further, the IC50 under setting [1] turned out to be 12 µM. The corresponding values for `COc1ccc2c(Cl)c(C(=O)NNC(=S)Nc3cc(Cl)c(Cl)cc3Cl)sc2c1` [Compound XX] are “useful telomerase-inhibiting properties” and 9 µM. Consider `O=C(NNC(=S)Nc1cc(C(F)(F)F)cc(C(F)(F)F)c1)c1sc2ccc(Cl)c(Cl)c2c1Cl` [Compound XXXVI], for which the half-inhibitory concentration (IC50) under setting [1] was 8 µM.

Regarding `Cc1ccc(Sc2ccccc2NC(=S)NNC(=O)c2cc3c(Cl)cccc3s2)cc1` [Compound XV], the concentration for half-maximal inhibition (IC50) under setting [1] is 9 µM. In the case of `O=C(NNC(=S)Nc1cc(Cl)c(Cl)cc1Cl)c1sc2ccc(Cl)c(Cl)c2c1Cl` [Compound XXXIX], the IC50 under setting [1] is 5 µM and ≤ 5 µM. For `Cc1cccc(NC(=S)Nc2ccc3sc(C(=O)NNC(=S)Nc4cc(C(F)(F)F)cc(C(F)(F)F)c4)cc3c2)c1` [Compound IV], the “anti-telomerase activity (in words)” value is given as “useful telomerase-inhibiting properties”. Also, the 50% inhibitory concentration (IC50) under setting [1] worked out at 23.4 µM. For `O=C(NNC(=S)Nc1ccc(Cl)c(Cl)c1Cl)c1cc2c(Cl)cccc2s1` [Compound XIV], the IC50 under setting [1] was 9 µM.

Turning to `O=C(NNC(=S)Nc1cc(Br)ccc1Br)c1sc2cc(-c3ccccc3)ccc2c1Cl` [Compound XXVIII], the IC50 under setting [1] came to 9 µM. The same measure, in the same setting: with `O=C(NNC(=S)Nc1ccc(Cl)cc1Cl)c1sc2ccc(Cl)c(Cl)c2c1Cl` [Compound XXXII] the figure was 7 µM; with `O=C(NNC(=S)Nc1cc(Br)ccc1Br)c1sc2ccc(Cl)c(Cl)c2c1Cl` [Compound XXXV], 6 µM; with `O=C(NNC(=S)Nc1cc(Cl)ccc1Cl)c1sc2cc(-c3ccccc3)ccc2c1Cl` [Compound XXVII], 6 µM. Consider `COc1ccc2c(Cl)c(C(=O)NNC(=S)Nc3ccc(Cl)c(Cl)c3Cl)sc2c1` [Compound XXII], for which the “anti-telomerase activity (in words)” value is reported as “useful telomerase-inhibiting properties”. Besides, under setting [1], the 50% inhibitory concentration (IC50) is 8 µM. Turning to `O=C(NNC(=S)Nc1c(Cl)cc(Cl)cc1Cl)c1sc2ccc(Cl)c(Cl)c2c1Cl` [Compound XL], the half-maximal inhibitory concentration (IC50) under setting [1] stood at 14 µM. The same measure, in the same setting: with `O=C(NNC(=S)Nc1c(Cl)cc(Cl)cc1Cl)c1sc2cc(-c3ccccc3)ccc2c1Cl` [Compound XXIX] the figure was 7 µM.

As to `O=C(NNC(=S)Nc1cc(Cl)c(Cl)c(Cl)c1Cl)c1cc2c(Cl)cccc2s1` [Compound XII], under setting [1], the concentration for half-maximal inhibition (IC50) amounted to 7 µM. With `O=C(NNC(=S)Nc1cc(Cl)c(Cl)c(Cl)c1Cl)c1sc2cc(-c3ccccc3)ccc2c1Cl` [Compound XXV], under setting [1], the IC50 was 10 µM.

On to `CSc1ccc(NC(=S)NNC(=O)c2cc3cc(NC(=S)Nc4cccc(C)c4)ccc3s2)cc1` [Compound VI], for which the “anti-telomerase activity (in words)” value is reported as “useful telomerase-inhibiting properties”. Moreover, the half-inhibitory concentration (IC50) under setting [1] stood at 6.4 µM.

In the case of `O=C(NNC(=S)Nc1cc(Cl)ccc1Cl)c1sc2ccc(Cl)c(Cl)c2c1Cl` [Compound XXXIII], under setting [1], the IC50 came out at 7 µM.

Regarding `O=C(NNC(=S)Nc1cc(Br)ccc1Br)c1cc2c(Cl)cccc2s1` [Compound XIII], the IC50 under setting [1] is 9 µM. Same read-out and setting: next, `O=C(NNC(=S)Nc1ccc(Cl)cc1)c1sc2ccc(Cl)c(Cl)c2c1Cl` [Compound XLI]: 8 µM; `Cc1ccc2c(Cl)c(C(=O)NNC(=S)Nc3cccc(Cl)c3Cl)sc2c1` [Compound XXIII]: 10 µM. Same read-out and setting: with `COc1ccc2c(Cl)c(C(=O)NNC(=S)Nc3cc(Cl)c(Cl)c(Cl)c3Cl)sc2c1Cl` [Compound XVIII] the figure was 15 µM.

For `O=C(NNC(=S)Nc1cc(Cl)c(Cl)cc1Cl)c1cc2cccc(F)c2s1` [VIII], the 50% inhibitory concentration (IC50) (IC50, approximate values) was 7 µM. With `O=C(NNC(=S)Nc1ccc(Cl)c(Cl)c1Cl)c1sc2ccc(Cl)c(Cl)c2c1Cl` [Compound XXXIV], under setting [1], the IC50 is 6 µM. Still for that read-out and setting: next, `O=C(NNC(=S)Nc1cc(Cl)c(Cl)c(Cl)c1Cl)c1cc2cccc(F)c2s1` [IX]: 5 µM and ≤ 5 µM; `O=C(NNC(=S)Nc1cccc(Cl)c1Cl)c1sc2ccc(Cl)c(Cl)c2c1Cl` [Compound XXXI]: 5 µM and ≤ 5 µM. With `Cc1ccc(NC(=S)Nc2ccc3sc(C(=O)NNC(=S)Nc4cc(Cl)ccc4Cl)cc3c2)cc1` [Compound II], the “anti-telomerase activity (in words)” value was “good anti-telomerase activity”. Besides, the half-inhibitory concentration (IC50) under setting [1] amounted to 6 µM. The corresponding values for `O=C(NNC(=S)Nc1cc(Cl)c(Cl)c(Cl)c1Cl)c1sc2ccccc2c1Cl` [Compound XIX] are “useful anti-telomerase properties” and 8 µM. As to `O=C(NNC(=S)Nc1cc(Cl)c(Cl)c(Cl)c1Cl)c1sc2ccc(Cl)c(Cl)c2c1Cl` [Compound XXX], under setting [1], the IC50 is 5 µM and ≤ 5 µM. As to `O=C(NNC(=S)Nc1cc(Cl)c(Cl)cc1Cl)c1cc2c(Cl)cccc2s1` [Compound XI], the 50% inhibitory concentration (IC50) under setting [1] was 10 µM.

Regarding `Cc1ccc(Sc2ccccc2NC(=S)NNC(=O)c2cc3cc(NC(=S)Nc4cccc(C)c4)ccc3s2)cc1` [Compound V], the “anti-telomerase activity (in words)” value is reported as “useful telomerase-inhibiting properties”. The IC50 under setting [1] is 9.7 µM.

As to `O=C(NNC(=S)Nc1cc(Cl)ccc1Cl)c1cc2ccccc2s1` [Compound VII], the IC50 under setting [1] came out at 10 µM.
